Results published in paper PMC7768359, “Synthesis of Platinum(II) Complexes with Some 1-Methylnitropyrazoles and In Vitro Research on Their Cytotoxic Activity” (Pharmaceuticals, 2020).

Columns and labels:
[1] = test system: A549 (lung adenocarcinoma); assay: In vitro cytotoxicity, sulforhodamine B assay; assay type: cell-based, human; conditions: 72 h
Experimental: (§1) Determination of the cytotoxic activity of compounds tested was performed separately in the normoxia or hypoxia conditions to reveal their potentially bioreductive properties. The experiment was carried out on three human cancer cell lines: MCF-7 breast, ES-2 ovarian and A549 lung adenocarcinoma as well as normal murine embryonic fibroblast BALB/3T3 cell line. In order to facilitate the preparation of solutions of the tested compounds, their initial solutions for dilution were made by dissolving the compounds in acetone. For this purpose, it was not possible to use more polar aprotic solvents (DMSO, DMF) due to the rapid isomerization of some of the tested complexes under their influence.
(§2) All the cell lines were cultured at 37 °C in a humid atmosphere containing 5% CO2. Additionally, in the case of cytotoxicity assay with hypoxic conditions, the cells (MCF-7, ES-2, A549) were maintained at 37 °C in a humid atmosphere containing 5% CO2 and 1% O2 during the entire experiment.
(§3) Twenty-four hours before adding the tested compounds, all cell lines were seeded in 96-well plates ([…] AG & Co, Nümbrecht Germany) in an appropriate media with 10^4 cells per well. All cell lines were exposed to each compound tested at four different concentrations for 72 h. […] Additionally, all cell lines were exposed to acetone (Avantor Performance Materials, Gliwice, Poland) (the solvent used for tested compounds) at concentrations corresponding to those present in tested compounds’ dilutions.
(§4) After 72 h of cell incubation with the compounds tested, the sulforhodamine B (SRB) assay was performed as described by Shekan et al. with minor modifications. The cells were fixed in situ by adding 50 µL per well of cold 50% trichloroacetic acid (Avantor Performance Materials, Gliwice, Poland) and were incubated at 4 °C for one hour. Following that, wells were washed five times with water and air dried. Next, 50 µL of 0.4% solution of sulforhodamine B (Sigma-Aldrich, Steinheim, Germany) in 1% acetic acid (Avantor Performance Materials, Gliwice, Poland) were added to each well and plates were incubated at room temperature for 0.5 h. After incubation time, the unbound dye was removed by washing plates five times with 1% acetic acid, whereas stains bound to cells was solubilized with 10 mM Tris base (Sigma-Aldrich, Steinheim, Germany). The absorbance of each solution was read by the Multiskan RC photometer (Labsystems Diagnostics Oy, Vantaa, Finland) at a 540 nm wavelength. Results are presented as mean IC50 (concentration of the compound tested that inhibits cell proliferation by 50%) ± standard deviation. IC50 values were calculated for each experiment on the basis of four different concentrations using Cheburator software, as described by Nevozhay. The tested compounds at each concentration were tested in triplicates in a single experiment and each experiment was repeated at least three times independently.

[2] = test system: ES-2 (ovarian adenocarcinoma); assay: In vitro cytotoxicity, sulforhodamine B assay; assay type: cell-based, human; conditions: 72 h
Experimental: as §1, §2, §3, §4

[3] = test system: MCF-7 (breast adenocarcinoma); assay: In vitro cytotoxicity, sulforhodamine B assay; assay type: cell-based, human; conditions: 72 h
Experimental: as §1, §2, §3, §4

[4] = test system: BALB/3T3 (murine embryonic fibroblast); assay: In vitro cytotoxicity, sulforhodamine B assay, normal cells; assay type: cell-based; conditions: BALB/3T3 normal cells, normoxia, 72 h
Experimental: Determination of the cytotoxic activity of compounds tested was performed separately in the normoxia or hypoxia conditions to reveal their potentially bioreductive properties. The experiment was carried out on three human cancer cell lines: MCF-7 breast, ES-2 ovarian and A549 lung adenocarcinoma as well as normal murine embryonic fibroblast BALB/3T3 cell line. In order to facilitate the preparation of solutions of the tested compounds, their initial solutions for dilution were made by dissolving the compounds in acetone.
All cell lines were exposed to each compound tested at four different concentrations for 72 h. […] Additionally, all cell lines were exposed to acetone (Avantor Performance Materials, Gliwice, Poland) (the solvent used for tested compounds) at concentrations corresponding to those present in tested compounds’ dilutions.
as §4, with “Results are presented as mean IC50 (concentration of the compound tested that inhibits cell proliferation by 50%) ± standard deviation.” left out

[5] = test system: MCF-7 cells; assay: Total cellular platinum uptake (ICP OES); assay type: cell-based, human; conditions: MCF-7, 4 h exposure, 10 µM
Experimental: It is necessary to strongly emphasize that the underlined values have a statistically significant lack of variance homogeneity (Fisher–Snedecor’s F-test, Fα/2) with respect to reference drug variance, so Aspin–Welch’s t-test was applied in these cases. […] For ionic compound 8, platinum uptake value was not determined due to Pt concentrations in the cell lysates being below the instrument detection limit (IDL = 10 μg/kg) specified by the manufacturer for the device used.
Cultured MCF-7 cells were seeded at a density of 4 × 10^5 cells/well of culture medium on a 6-well plate (Corning, NY, USA) to a final volume of 2.5 mL. […] The wells without MCF-7 cells were filled with 1 mL of culture medium-containing compound tested to act as a reference for nonspecific platinum complex adsorption on the surface of the well. After incubation, all wells were washed twice with 2 mL of cold PBS, filled with 400 μL of hot (ca 90 °C) 65% nitric acid, and maintained to stand for 2 h. All wells were finally filled with 1600 μL of water and this solution was collected and analyzed using iCAP 7400 Duo ICP OES instrument (Thermo Fisher Scientific) using the plasma axial view (10 s) at λ = 265.945 nm. The amount of Pt per cell was calculated by subtracting the amount of Pt found in the blank well from the amount of Pt found in the cell-containing wells and normalized to the average number of cells per well. The mean and SD values were calculated on the basis of 4 measurements.

[6] = logP by shake-flask method (n-octanol / 0.9% NaCl, Pt by ICP-OES); assay type: physicochemical; conditions: octanol/water, n = 4
Experimental: An important factor for the pharmacokinetics and the cellular accumulation of the investigated complexes, their lipophilicity was determined by measuring octanol/water partition coefficients (logP) with the shake-flask method. The logP determination was carried out based on a previously described procedure, modified by us to obtain more accurate and repeatable results.
Weighted amounts of the tested platinum complex were suspended by 10 min sonification in 0.9% NaCl water solution, which was previously saturated with n-octanol, and mixed by shaking for 1 h. A simultaneously similar procedure was performed using 5 mL of n-octanol pre-saturated with 0.9% NaCl. Afterward, both suspensions were mixed together, shaken for an additional 1 h, and centrifuged for 5 min. After phase separation and evaporation in vacuo of 1 mL of sample to dryness, the final concentration of Pt was determined by ICP-OES (λ = 265.945 nm) and the partition coefficients were calculated. For the analysis, all samples were dissolved 1:1000 in 2.5% HCl. Each measurement was repeated four times and the final logP was calculated as the arithmetic mean of the four values.

[7] = set-up: method as in PMID 18777181; conditions: cited from earlier work

Row | SMILES | logP ± SD [6] | IC50 ± SD ([1]; A549, hypoxia (1% O2)) | IC50 ± SD ([1]; A549, normoxia) | IC50 ± SD ([2]; ES-2, hypoxia (1% O2)) | IC50 ± SD ([2]; ES-2, normoxia) | IC50 ± SD ([3]; MCF-7, hypoxia (1% O2)) | IC50 ± SD ([3]; MCF-7, normoxia) | IC50 ([4]; Mus musculus) | Total Cellular Platinum Uptake in MCF-7 Cells (± SD) [5] | IC50 ([1]; A549, hypoxia (1% O2)) | IC50 ([1]; A549, normoxia) | IC50 ([2]; ES-2, hypoxia (1% O2)) | IC50 ([2]; ES-2, normoxia) | IC50 ([3]; MCF-7, hypoxia (1% O2)) | IC50 ([3]; MCF-7, normoxia) | IC50 [4] | half-time of the reaction with GSH [7]
1 | Cn1cc([N+](=O)[O-])cn1 [1-Methyl-4-nitropyrazole, 1-methyl-4-nitropyrazole, reference compound] | – | inactive | inactive | inactive | inactive | inactive | inactive | > 100 µM | – | – | – | – | – | – | – | – | –
2 | N.N.[Cl][Pt][Cl] [Cisplatin, cisplatin, reference compound] | – | – | – | – | – | – | – | – | 74 ± 20 ng Pt/10^6 Cells | 23.9 ± 9.3 µM | 9.8 ± 1.2 µM | 13.7 ± 5.7 µM | 8.6 ± 2.6 µM | 14.7 ± 5.8 µM | 12.6 ± 2.6 µM | 8.67 ± 2.6 µM | –
3 | N.N.[Cl][Pt+2][Cl] [transplatin] | – | – | – | – | – | – | – | – | – | – | – | – | – | – | – | – | 4 min

The next lines start with results.

Row | logP ± SD [6] | SMILES | IC50 ± SD ([1]; A549, hypoxia (1% O2)) | IC50 ± SD ([1]; A549, normoxia) | IC50 ± SD ([2]; ES-2, hypoxia (1% O2)) | IC50 ± SD ([2]; ES-2, normoxia) | IC50 ± SD ([3]; MCF-7, hypoxia (1% O2)) | IC50 ± SD ([3]; MCF-7, normoxia) | IC50 ([4]; Mus musculus) | Total Cellular Platinum Uptake in MCF-7 Cells (± SD) [5] | IC50 ([1]; A549, hypoxia (1% O2)) | IC50 ([1]; A549, normoxia) | IC50 ([2]; ES-2, hypoxia (1% O2)) | IC50 ([2]; ES-2, normoxia) | IC50 ([3]; MCF-7, hypoxia (1% O2)) | IC50 ([3]; MCF-7, normoxia) | IC50 [4] | half-time of the reaction with GSH [7]
4 | −0.58 ± 0.13 | COC(=O)c1c([N+](=O)[O-])c[n+]([Pt@SP2-2]([Cl])([Cl])[n+]2cc([N+](=O)[O-])c(C(=O)OC)n2C)n1C [Compound 5, cis-dichloridobis(methyl 1-methyl-4-nitropyrazole-5-carboxylate)platinum(II)] | inactive | inactive | inactive | – | inactive | – | – | 39 ± 3 ng Pt/10^6 Cells | – | – | – | 38.1 ± 9.2 µM | – | 49.1 ± 30.1 µM | > 100 µM | –
5 | −0.37 ± 0.03 | COC(=O)c1c([N+](=O)[O-])c[n+]([Pt@SP3-2]([Cl])([Cl])[n+]2cc([N+](=O)[O-])c(C(=O)OC)n2C)n1C [Compound 6, trans-dichloridobis(methyl 1-methyl-4-nitropyrazole-5-carboxylate)platinum(II)] | inactive | – | – | – | – | – | – | 47 ± 17 ng Pt/10^6 Cells | – | 58.2 ± 7.6 µM | 99.8 ± 37.9 µM | 36.3 ± 8.6 µM | 86.8 ± 19 µM | 23.6 ± 8.6 µM | > 100 µM | –
6 | −0.69 ± 0.04 | Cc1c([N+](=O)[O-])cn(C)[n+]1[Pt@SP2-2]([Cl])([Cl])[n+]1c(C)c([N+](=O)[O-])cn1C [Compound 7, cis-dichloridobis(1,3-dimethyl-4-nitropyrazole)platinum(II)] | inactive | – | inactive | – | inactive | – | – | 16 ± 7 ng Pt/10^6 Cells | – | 93 ± 12.9 µM | – | 68.9 ± 10 µM | – | 58 ± 8.7 µM | > 100 µM | –
7 | −1.22 ± 0.08 | COC(=O)c1c([N+](=O)[O-])cn(C)[n+]1[Pt-2]([Cl])([Cl])[Cl].[K+] [Compound 8, potassium trichlorido(3-carboxymethyl-1-methyl-4-nitropirazole)platinate(II)] | inactive | inactive | inactive | – | inactive | inactive | – | ^† below IDL | – | – | – | 48.5 ± 25.9 µM | – | – | > 100 µM | –
